Key:
Assay type in all cases: physicochemical
Solubility in hexane = details: printed as solvent volume per mass
Method: As pointed out above, the solubility of 3′-epilutein in solvents such as pentane, hexane, heptane, and petroleum ether (b.p.=35-60° C.) is much higher than that of (3R,3′R,6′R)-lutein. However; large scale separation with these non-polar hydrocarbons alone would require large volumes of solvents and is not practical. For example, the low solubility of 3′-epilutein in hexane (13 ml/mg) is indicative of the large volumes of this solvent needed for the partial separation of 3′-epilutein from (3R,3′R,6′R)-lutein by virtue of their differential solubilities. Therefore, a co-solvent may be employed to increase the solubility of 3′-epilutein and at the same time reduce the volume of the hydrocarbon solvent. […] Preferred ethers include diethyl ether, TBME, diisopropyl ether and the like. Preferred non-polar hydrocarbon solvents include pentane, hexane, heptane, petroleum ether and the like. The preferred petroleum ether is that fraction which boils at 35-60° C. The ratio of non-polar hydrocarbon solvent (or petroleum ether) to ether may range from 4:1, to about 2:1, more preferably, about 3:1. One of ordinary skill in the art may determine other ratios with no more than routine experimentation.

[1] = Solubility in non-polar hydrocarbon / organic solvents; details: pentane, hexane, heptane, cyclohexane, petroleum ether (b.p.=35-60° C.)
Method: Such solvents include pentane, hexane, heptane, cyclohexane, petroleum ether (b.p.=35-60° C.) and the like. Based on this difference in solubility behavior, a number of processes were developed which allowed the partial separation of 3′-epilutein from (3R,3′R,6′R)-lutein. These methods are a) solvent extraction, b) preferential crystallization, c) Soxhlet extraction, d) enzymatic acylation, and e) supercritical extraction with carbon dioxide. When each of these methods is applied separately to a 1:1 mixture of (3R,3′R,6′R)-lutein and 3′-epilutein, the partial separation of these carotenoids was accomplished and 3′-epilutein was obtained in 77-95% enrichment. […] The enrichment of 3′-epilutein in poorly separated mixtures may be further increased by low-temperature crystallization of (3R,3′R,6′R)-lutein from a C1-4 alcohol. Alcohols suitable for this crystallization include ethanol, methanol, propanol, 2-propanol and the like. The temperature at which the crystallization may be performed is between about −80° C. and about −40° C. […]
While (3R,3′R,6′R)-lutein and (3R,3′R)-zeaxanthin are not acylated with lipase AK or lipase PS, 3′-epilutein undergoes acylation at C-3′ to give 3′-epilutein-3′-acetate. As mentioned above, due to the difference in solubility between (3R,3′R,6′R)-lutein and 3′-epilutein, the enzymatic acylation can be readily carried out in the above-mentioned organic solvents. […]

[2] = Solubility in supercritical carbon dioxide; details: 5 mg scale
Method: The partial separation of (3R,3′R,6′R)-lutein and 3′-epilutein was also found to be quite feasible by the use of supercritical fluid extraction with carbon dioxide.
5 mg of an epimeric mixture of (3R,3′R,6′R)-lutein and 3-epilutein prepared from 97% pure (3R,3′R,6′R)-lutein (Table 2) was mixed with 0.70 g of hydromatrix (mixture of silica gel and diatomaceous earth). This was extracted with carbon dioxide in a Model Prep-Master supercritical fluid extraction apparatus (Suprex-ISCO, Inc., Lincoln, Nebr.). The conditions were as follows: flow=2 ml/min, restrictor temperature=50° C., desorb temperature=10° C., oven temperature=35° C. A two step gradient was employed for extraction of 3′-epilutein. Step one used 100 g of carbon dioxide at 300 atmosphere and step two 50 g of carbon dioxide at 375 atmosphere. Total of 2.4 mg of carotenoids was extracted with this 150 g of carbon dioxide. The extracted carotenoids were shown by HPLC to consist of 3′-epilutein (83%), (3R,3′R,6′R)-lutein (13%), anhydrolutein (2%), and Z-luteins (2%). Approximately 2.5 mg of carotenoids remained in the hydromatrix; these were: (3R,3′R,6′R)-lutein (77%), 3′-epilutein (13%), and (3R,3′R)-zeaxanthin (10%).

CC1=C[C@@H](O)CC(C)(C)[C@H]1/C=C/C(C)=C/C=C/C(C)=C/C=C/C=C(C)/C=C/C=C(C)/C=C/C1=C(C)C[C@@H](O)CC1(C)C [3′-epilutein, (3R,3′S,6′R)-lutein]
solubility in hexane (Solubility in hexane): 13 mL/mg
solubility in non-polar solvents (in words) [1]: slightly more soluble than (3R,3′R,6′R)-lutein
solubility in supercritical carbon dioxide (in words) [2]: by far greater than that of (3R,3′R,6′R)-lutein and (3R,3′R)-zeaxanthin

CC(=O)OC1C=C(C)C(C=CC(C)=CC=CC(C)=CC=CC=C(C)C=CC=C(C)C=CC2=C(C)CC(O)CC2(C)C)C(C)(C)C1 (stereo not shown) [3′-epilutein-3′-acetate]
solubility in non-polar solvents (in words) [1]: highly soluble
